Pest or weed control data for 18 molecules are collected here from patent US10219516B2, “Molecules having pesticidal utility, and intermediates, compositions, and processes, related thereto” (priority 2015, dated 2019).

Holding throughout (assay type): in vivo
Test [1] has as its system Cabbage Looper (Trichoplusia ni, TRIPNI). Description: Bioassay on Cabbage Looper (CL), 128-well diet tray assay. As to conditions: Trichoplusia ni. Put shortly:
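Diet-incorporation-free surface assay: 50 μg/cm^2 compound in acetone-water (90:10), dried on diet; 1–5 2nd-instar larvae/well; 8 wells; vented cover; 25° C., 14:10 L:D, 5–7 d; % mortality averaged over wells.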

Test [2] has as its system Beet Armyworm (Spodoptera exigua, LAPHEG). Kind of test: Bioassay on Beet Armyworm (BAW), 128-well diet tray assay. Put shortly: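 Artificial diet surface-treated with 50 μg/cm^2 test molecule in 90:10 acetone-water, dried, then infested with one to five second instar larvae per well. Held covered and vented at 25° C., 14:10 light-dark for five to seven days; percent mortality recorded per well and averaged over eight wells.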

For test [3], the system named is Green Peach Aphid (Myzus persicae, MYZUPE). Description: Bioassay on Green Peach Aphid (GPA), foliar spray on infested cabbage seedlings. As to conditions: 72 h. The protocol: Certain molecules disclosed in this document were tested against GPA using procedures described in the following example. In the reporting of the results, the “GPA & YFM Rating Table” was used (See Table Section).
Cabbage seedlings grown in 3-inch pots, with 2-3 small (3-5 cm) true leaves, were used as test substrate. The seedlings were infested with 20-50 GPA (wingless adult and nymph stages) one day prior to chemical application. Four pots with individual seedlings were used for each treatment. Test molecules (2 mg) were dissolved in 2 mL of acetone/methanol (1:1) solvent, forming stock solutions of 1000 ppm test molecule. The stock solutions were diluted 5× with 0.025% Tween 20 in water to obtain the solution at 200 ppm test molecule. A hand-held aspirator-type sprayer was used for spraying a solution to both sides of […] leaves until runoff. Reference plants (solvent check) were sprayed with the diluent only containing 20% by volume of acetone/methanol (1:1) solvent. Treated plants were held in a holding room for three days at approximately 25° C. and ambient relative humidity (RH) prior to grading. Evaluation was conducted by counting the number of live aphids per plant under a microscope. Percent control was measured using Abbott's correction formula (W. S. Abbott, “A Method of Computing the Effectiveness of an Insecticide” 3. Econ. Entomol. 18 (1925), pp. 265-267) as follows. Corrected % Control=100*(X−Y)/X where X=No. of live aphids on solvent check plants and Y=No. of live aphids on treated plants. The results are indicated in the table entitled “Table ABC: Biological Results” (See Table Section).

Where [4] appears, read: Species CL (Cabbage Looper), read-out: CL (Biological Results, rating).
Where [5] appears, read: Species BAW (Beet Armyworm), read-out: BAW (Biological Results, rating).
The mark [6] stands for this setting: foliar, Species GPA (Green Peach Aphid), read-out: GPA (Biological Results, rating).
[7] abbreviates: Green Peach Aphid, foliar spray on cabbage seedlings, read-out: GPA rating.

Read-outs that look alike come from different tables or passages of the source.

On to `Cc1cc(Cl)cc([C@H]2[C@H](C(=O)Nc3ccc(Cl)c(C(=O)N(C)c4ccc(F)cc4)c3)C2(Cl)Cl)c1` (relative stereo) [F117, trans-2-Chloro-5-(2,2-dichloro-3-(3-chloro-5-methylphenyl)cyclopropane-1-carboxamido)-N-(4-fluorophenyl)-N-methylbenzamide], for which the pest or weed control at 50 µg/cm2 in test [1] (setting [4]) and in test [2] (setting [5]) was 50 to 100% in each case. In test [3] (setting [6]), the pest or weed control at 200 µg/mL was in the range of 0 to 80%.

Turning to `O=C(Nc1ccc(OC(F)(F)F)cc1)c1cc(NC(=O)[C@H]2[C@H](c3cc(Cl)cc(Cl)c3)C2(Cl)Cl)ccc1Cl` (relative stereo) [F147, trans-2-Chloro-5-(2,2-dichloro-3-(3,5-dichlorophenyl)cyclopropane-1-carboxamido)-N-(4-(trifluoromethoxy)phenyl)benzamide], the pest or weed control at 50 µg/cm2 in test [1] (setting [4]) and in test [2] (setting [5]) was 50 to 100% in each case. Moreover, the pest or weed control at 200 µg/mL in test [3] (setting [6]) was in the range of 0 to 80%.

Regarding `CN(C(=O)c1cc(NC(=O)[C@H]2[C@H](c3cc(Cl)cc(Cl)c3)C2(Cl)Cl)ccc1F)c1ccc(F)cc1` (relative stereo) [F45, trans-5-(2,2-Dichloro-3-(3,5-dichlorophenyl)cyclopropane-1-carboxamido)-2-fluoro-N-(4-fluorophenyl)-N-methylbenzamide], the pest or weed control at 50 µg/cm2 in test [1] (setting [4]) and in test [2] (setting [5]) was 50 to 100% in each case. Also, in test [3] (setting [6]), the pest or weed control at 200 µg/mL was 0 to 80%.

`O=C(Nc1ccc(Cl)c(C(=O)N2CCc3cc(F)ccc32)c1)[C@H]1[C@H](c2cc(Cl)cc(Cl)c2)C1(Cl)Cl` (relative stereo) [F155, trans-2,2-Dichloro-N-(4-chloro-3-(5-fluoroindoline-1-carbonyl)phenyl)-3-(3,5-dichlorophenyl)cyclopropane-1-carboxamide]: the pest or weed control at 50 µg/cm2 in test [1] (setting [4]) and in test [2] (setting [5]) was 50 to 100% each time. In test [3] (setting [6]), the pest or weed control at 200 µg/mL was 0 to 80%.

As for `O=C(Nc1ccc(F)cc1)c1cc(NC(=O)[C@H]2[C@H](c3cc(Cl)cc(Cl)c3)C2(Cl)Cl)ccc1Br` (relative stereo) [F11, trans-2-Bromo-5-(2,2-dichloro-3-(3,5-dichlorophenyl)cyclopropane-1-carboxamido)-N-(4-fluorophenyl)benzamide], the pest or weed control at 50 µg/cm2 in test [1] (setting [4]) and in test [2] (setting [5]) was 50 to 100% each time. Further, the pest or weed control at 200 µg/mL in test [3] (setting [6]) lay within 0 to 80%.

Take `O=C(Nc1ccc(F)cc1)c1cc(NC(=O)[C@H]2[C@H](c3cc(Cl)c(F)c(Cl)c3)C2(Cl)Cl)ccc1Cl` (relative stereo) [F96, trans-2-Chloro-5-(2,2-dichloro-3-(3,5-dichloro-4-fluorophenyl)cyclopropane-1-carboxamido)-N-(4-fluorophenyl)benzamide]: the pest or weed control at 50 µg/cm2 in test [1] (setting [4]) and in test [2] (setting [5]) was 50 to 100% throughout. Moreover, the pest or weed control at 200 µg/mL in test [3] (setting [6]) fell in the range of 80 to 100%.

Regarding `COc1ccc(NC(=O)[C@H]2[C@H](c3cc(Cl)cc(Cl)c3)C2(Cl)Cl)cc1C(=O)Nc1ccc(F)cc1` (relative stereo) [F128, trans-5-(2,2-Dichloro-3-(3,5-dichlorophenyl)cyclopropane-1-carboxamido)-N-(4-fluorophenyl)-2-methoxybenzamide], the values for the pest or weed control at 50 µg/cm2 in test [1] (setting [4]) and in test [2] (setting [5]) were 50 to 100% and 0 to 50%, respectively. For the same molecule, in test [3] (setting [6]), the pest or weed control at 200 µg/mL was in the range of 0 to 80%.

Regarding `O=C(Nc1ccc(F)cc1)c1cc(NC(=O)C2C(c3cc(Cl)cc(Cl)c3)C2(F)Cl)ccc1Cl` (stereo not drawn) [PF153, 2-Chloro-5-(trans)-2-chloro-3-(3,5-dichlorophenyl)-2-fluorocyclopropane-1-carboxamido)-N-(4-fluorophenyl)benzamide], the pest or weed control at 50 µg/cm2 in test [1] (Cabbage Looper, 128-well diet tray assay, read-out: CL rating) is 50 to 100%; in test [2] (Beet Armyworm, 128-well diet tray assay, read-out: BAW rating), 50 to 100%. Further, in test [3] (setting [7]), the pest or weed control at 200 µg/mL lay within 80 to 100%.

On to `COc1ccc(NC(=O)c2cc(NC(=O)[C@H]3[C@H](c4cc(Cl)cc(Cl)c4)C3(Cl)Cl)ccc2Cl)cc1` (relative stereo) [F146, trans-2-chloro-5-(2,2-dichloro-3-(3,5-dichlorophenyl)cyclopropane-1-carboxamido)-N-(4-methoxyphenyl)benzamide], for which the pest or weed control at 50 µg/cm2 in test [1] (setting [4]) and in test [2] (setting [5]) was 50 to 100% each time. In addition, the pest or weed control at 200 µg/mL in test [3] (setting [6]) was 80 to 100%.

Consider `O=C(Nc1ccc(Cl)cc1)c1cc(NC(=O)[C@H]2[C@H](c3cc(Cl)cc(Cl)c3)C2(Cl)Cl)ccc1Cl` (relative stereo) [F7, trans-2-Chloro-N-(4-chlorophenyl)-5-(2,2-dichloro-3-(3,5-dichlorophenyl)cyclopropane-1-carboxamido)benzamide], for which the pest or weed control at 50 µg/cm2 in test [1] (setting [4]) and in test [2] (setting [5]) was 50 to 100% each time. Also, in test [3] (setting [6]), the pest or weed control at 200 µg/mL was 0 to 80%.

As for `CC(=O)Nc1ccc(NC(=O)c2cc(NC(=O)[C@H]3[C@H](c4cc(Cl)cc(Cl)c4)C3(Cl)Cl)ccc2Cl)cc1` (relative stereo) [F153, trans-N-(4-Acetamidophenyl)-2-chloro-5-(2,2-dichloro-3-(3,5-dichlorophenyl)cyclopropane-1-carboxamido)benzamide], the pest or weed control at 50 µg/cm2 in test [1] (setting [4]) and in test [2] (setting [5]) was 50 to 100% throughout. In test [3] (setting [6]), the pest or weed control at 200 µg/mL was 0 to 80%.

With `CC(C)(C)OC(=O)Nc1cc(C(F)(F)F)cc(NC(=O)c2cc(NC(=O)[C@H]3[C@H](c4cc(Cl)cc(Cl)c4)C3(Cl)Cl)ccc2Cl)n1` (relative stereo) [F507, tert-Butyl (6-(2-chloro-5-(trans-2,2-dichloro-3-(3,5-dichlorophenyl)cyclopropane-1-carboxamido)benzamido)-4-(trifluoromethyl)pyridin-2-yl)carbamate], the pest or weed control at 200 µg/mL in test [3] (setting [7]) lay within 0 to 80%.

For the molecule `O=C(Nc1ccc(F)nc1)c1cc(NC(=O)[C@H]2[C@H](c3cc(Cl)cc(Cl)c3)C2(Cl)Cl)ccc1Cl` (relative stereo) [F142, trans-2-chloro-5-(2,2-dichloro-3-(3,5-dichlorophenyl)cyclopropane-1-carboxamido)-N-(6-fluoropyridin-3-yl)benzamide], the pest or weed control at 50 µg/cm2 in test [1] (setting [4]) and in test [2] (setting [5]) was 50 to 100% each time. Also, the pest or weed control at 200 µg/mL in test [3] (setting [6]) lay within 80 to 100%.

As to `O=C(Nc1ccc(F)cc1Cl)c1cc(NC(=O)[C@H]2[C@H](c3cc(Cl)cc(Cl)c3)C2(Cl)Cl)ccc1Cl` (relative stereo) [F8, trans-2-Chloro-N-(2-chloro-4-fluorophenyl)-5-(2,2-dichloro-3-(3,5-dichlorophenyl)cyclopropane-1-carboxamido)benzamide], the pest or weed control at 50 µg/cm2 in test [1] (setting [4]) and in test [2] (setting [5]) was 50 to 100% throughout. Moreover, in test [3] (setting [6]), the pest or weed control at 200 µg/mL lay within 80 to 100%.

Take `COc1ccc(NC(=O)c2cc(NC(=O)[C@H]3[C@H](c4cc(Cl)cc(Cl)c4)C3(Cl)Cl)ccc2Cl)c(F)c1` (relative stereo) [F150, trans-2-Chloro-5-(2,2-dichloro-3-(3,5-dichlorophenyl)cyclopropane-1-carboxamido)-N-(2-fluoro-4-methoxyphenyl)benzamide]: the pest or weed control at 50 µg/cm2 in test [1] (setting [4]) and in test [2] (setting [5]) was 50 to 100% in each case. In addition, the pest or weed control at 200 µg/mL in test [3] (setting [6]) was 80 to 100%.

For `Cc1ccc(NC(=O)c2cc(NC(=O)[C@H]3[C@H](c4cc(Cl)cc(Cl)c4)C3(Cl)Cl)ccc2Cl)c(F)c1` (relative stereo) [F151, trans-2-Chloro-5-(2,2-dichloro-3-(3,5-dichlorophenyl)cyclopropane-1-carboxamido)-N-(2-fluoro-4-methylphenyl)benzamide], the pest or weed control at 50 µg/cm2 in test [1] (setting [4]) and in test [2] (setting [5]) was 50 to 100% throughout. Moreover, the pest or weed control at 200 µg/mL in test [3] (setting [6]) was in the range of 80 to 100%.

On to `O=C(Nc1ccc(F)cc1)c1cccc(NC(=O)[C@H]2[C@H](c3cc(Cl)cc(Cl)c3)C2(Cl)Cl)c1Cl` (relative stereo) [F127, trans-2-Chloro-3-(2,2-dichloro-3-(3,5-dichlorophenyl)cyclopropane-1-carboxamido)-N-(4-fluorophenyl)benzamide], for which the pest or weed control at 50 µg/cm2 in test [1] (setting [4]) and in test [2] (setting [5]) was 50 to 100% throughout. Besides, the pest or weed control at 200 µg/mL in test [3] (setting [6]) is 0 to 80%.

On to `O=C(Nc1cc(F)cc(F)c1)c1cc(NC(=O)[C@H]2[C@H](c3cc(Cl)cc(Cl)c3)C2(Cl)Cl)ccc1Cl` (relative stereo) [F154, trans-2-Chloro-5-(2,2-dichloro-3-(3,5-dichlorophenyl)cyclopropane-1-carboxamido)-N-(3,5-difluorophenyl)benzamide], for which the pest or weed control at 50 µg/cm2 in test [1] (setting [4]) and in test [2] (setting [5]) was 50 to 100% throughout. Also, the pest or weed control at 200 µg/mL in test [3] (setting [6]) fell in the range of 80 to 100%.
